In ChEMBL document CHEMBL1201862, “PubChem BioAssay data set” (2004):
Active and inactive are the calls of the source.

Tests used:
[1] = molecular target: T1, Sphingosine 1-phosphate receptor 4 (Homo sapiens, UniProt O95977); experiment: Fluorescence dose response cell-based high throughput screening assay for antagonists of the Sphingosine 1-Phosphate Receptor 4 (S1P4). [Related pubchem assays: 1524 (Confirmation in triplicates.), 1510 (Primary screen.)]; type: functional
T1 sequence (O95977 whole entry): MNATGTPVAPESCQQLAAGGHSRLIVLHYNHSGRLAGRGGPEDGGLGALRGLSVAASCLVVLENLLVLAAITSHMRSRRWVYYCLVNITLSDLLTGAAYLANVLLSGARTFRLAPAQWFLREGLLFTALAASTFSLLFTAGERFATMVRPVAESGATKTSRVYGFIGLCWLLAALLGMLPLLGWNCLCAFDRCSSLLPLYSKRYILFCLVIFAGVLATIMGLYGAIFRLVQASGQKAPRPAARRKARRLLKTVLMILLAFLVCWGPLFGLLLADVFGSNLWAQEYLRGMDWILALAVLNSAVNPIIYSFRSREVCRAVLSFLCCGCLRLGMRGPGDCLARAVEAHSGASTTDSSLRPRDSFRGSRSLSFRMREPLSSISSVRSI

cells = type: functional
Beta Lactamase = Beta Lactamase (Pseudomonas aeruginosa, UniProt Q932Y6); experiment: beta-lactamase reporter inhibitor potency, dose response, artefact control for NOD2-RIPK2 interaction inhibitor project, BLA reporter cells, FRET fluorescence (AID 651552); type: functional, cell-based
Chain of Beta Lactamase (Q932Y6 whole entry): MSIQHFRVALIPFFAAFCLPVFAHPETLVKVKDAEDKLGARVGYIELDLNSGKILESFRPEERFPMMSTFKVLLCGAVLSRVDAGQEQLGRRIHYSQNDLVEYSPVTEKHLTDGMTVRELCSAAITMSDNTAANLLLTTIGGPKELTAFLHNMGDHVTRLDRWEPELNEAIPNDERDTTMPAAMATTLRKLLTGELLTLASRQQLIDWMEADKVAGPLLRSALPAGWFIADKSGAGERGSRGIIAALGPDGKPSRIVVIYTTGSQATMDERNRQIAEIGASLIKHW

[2] = cytotoxicity toward NIH3T3 fibroblasts, dose response, counter-screen, cell-based, ATP luminescence, mouse fibroblasts (AID 2010); type: functional;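 further: cells exposed to compound for about 90 hours before reading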
[3] = inhibitors of firefly luciferase expression or activity, dose response, H4 neuroglioma cells, luminescence (AID 1990); type: functional, cell-based
[4] = Luminescence Cell-Based Dose Response HTS to Identify Inhibitors of 5'UTR Stem-Loop Driven Prion Protein mRNA Translation in H4 Neuroglioblastoma Cells. [Related pubchem assays: 1827 (Project Summary), 1813 (Primary HTS)]; type: functional
Streptokinase A = molecular target: T2, Streptokinase A (Streptococcus pyogenes serotype M1, UniProt P10520); experiment: S. pyogenes streptokinase expression inhibitors, potency, dose response, plasminogen activation absorbance, OD405 (AID 1914); type: functional, Streptococcus pyogenes M1 GAS;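 further: secreted streptokinase activity via plasminogen activation per viability signal from cell pellet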
T2 sequence (P10520 whole entry): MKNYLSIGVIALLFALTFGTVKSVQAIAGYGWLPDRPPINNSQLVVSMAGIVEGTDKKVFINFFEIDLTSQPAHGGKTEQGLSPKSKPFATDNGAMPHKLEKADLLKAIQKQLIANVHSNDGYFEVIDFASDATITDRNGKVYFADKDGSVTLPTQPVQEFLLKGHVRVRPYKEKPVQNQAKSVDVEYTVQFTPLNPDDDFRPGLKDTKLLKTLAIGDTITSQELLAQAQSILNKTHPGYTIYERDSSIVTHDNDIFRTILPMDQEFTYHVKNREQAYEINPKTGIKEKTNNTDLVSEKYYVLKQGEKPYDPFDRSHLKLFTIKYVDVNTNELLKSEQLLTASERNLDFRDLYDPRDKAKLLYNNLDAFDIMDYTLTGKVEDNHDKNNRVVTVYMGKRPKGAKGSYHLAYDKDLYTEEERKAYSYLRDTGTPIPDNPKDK

14-3-3 protein gamma = 14-3-3 protein gamma (Homo sapiens, UniProt P61981); experiment: modulators of 14-3-3 gamma client binding – dose response (AID 711); type: functional
Chain of 14-3-3 protein gamma (P61981 whole entry): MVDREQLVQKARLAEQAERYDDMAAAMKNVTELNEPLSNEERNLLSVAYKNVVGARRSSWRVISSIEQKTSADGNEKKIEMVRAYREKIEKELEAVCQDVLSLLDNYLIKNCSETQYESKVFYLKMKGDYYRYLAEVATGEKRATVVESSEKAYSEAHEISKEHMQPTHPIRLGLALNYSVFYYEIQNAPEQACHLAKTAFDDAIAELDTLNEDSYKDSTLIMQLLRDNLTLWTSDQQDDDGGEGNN

[5] = control 3'UTR Renilla luciferase suppression, dose response, counter-screen for Shn3 inhibitor project, cell-based, Clone20-Shn3RL, cherry-picked (AID 624133); type: functional
[6] = THP-1 cell cytotoxicity, dose response, cytotoxicity control for Vif-APOBEC3G degradation inhibitor project, THP-1 cells (AID 1117359); type: functional; conditions: Human immunodeficiency virus 1, THP-1
[7] = molecular target: Tyrosine-protein kinase SYK (Homo sapiens, UniProt P43405); type: functional
[8] = molecular target: Mitogen-activated protein kinase 9 (Homo sapiens, UniProt P45984); type: functional;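 further: value from a kinome panel profiling assay, MAPK9 panel entry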
Chain of Mitogen-activated protein kinase 9 (P45984 whole entry): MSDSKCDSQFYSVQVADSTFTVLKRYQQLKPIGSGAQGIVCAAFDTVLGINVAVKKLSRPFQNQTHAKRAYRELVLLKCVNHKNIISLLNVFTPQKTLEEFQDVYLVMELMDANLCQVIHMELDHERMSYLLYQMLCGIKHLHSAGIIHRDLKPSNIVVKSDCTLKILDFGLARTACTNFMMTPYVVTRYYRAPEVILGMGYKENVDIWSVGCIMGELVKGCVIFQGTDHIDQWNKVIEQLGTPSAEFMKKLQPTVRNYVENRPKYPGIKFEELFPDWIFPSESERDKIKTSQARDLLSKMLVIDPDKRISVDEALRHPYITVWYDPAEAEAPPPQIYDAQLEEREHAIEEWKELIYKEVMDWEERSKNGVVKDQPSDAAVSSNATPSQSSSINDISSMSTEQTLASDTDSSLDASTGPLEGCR

Activated CDC42 kinase 1 = Activated CDC42 kinase 1 (Homo sapiens, UniProt Q07912); experiment: Navigating the Kinome. Panel member name: ACK1; type: functional
Chain of Activated CDC42 kinase 1 (Q07912 whole entry): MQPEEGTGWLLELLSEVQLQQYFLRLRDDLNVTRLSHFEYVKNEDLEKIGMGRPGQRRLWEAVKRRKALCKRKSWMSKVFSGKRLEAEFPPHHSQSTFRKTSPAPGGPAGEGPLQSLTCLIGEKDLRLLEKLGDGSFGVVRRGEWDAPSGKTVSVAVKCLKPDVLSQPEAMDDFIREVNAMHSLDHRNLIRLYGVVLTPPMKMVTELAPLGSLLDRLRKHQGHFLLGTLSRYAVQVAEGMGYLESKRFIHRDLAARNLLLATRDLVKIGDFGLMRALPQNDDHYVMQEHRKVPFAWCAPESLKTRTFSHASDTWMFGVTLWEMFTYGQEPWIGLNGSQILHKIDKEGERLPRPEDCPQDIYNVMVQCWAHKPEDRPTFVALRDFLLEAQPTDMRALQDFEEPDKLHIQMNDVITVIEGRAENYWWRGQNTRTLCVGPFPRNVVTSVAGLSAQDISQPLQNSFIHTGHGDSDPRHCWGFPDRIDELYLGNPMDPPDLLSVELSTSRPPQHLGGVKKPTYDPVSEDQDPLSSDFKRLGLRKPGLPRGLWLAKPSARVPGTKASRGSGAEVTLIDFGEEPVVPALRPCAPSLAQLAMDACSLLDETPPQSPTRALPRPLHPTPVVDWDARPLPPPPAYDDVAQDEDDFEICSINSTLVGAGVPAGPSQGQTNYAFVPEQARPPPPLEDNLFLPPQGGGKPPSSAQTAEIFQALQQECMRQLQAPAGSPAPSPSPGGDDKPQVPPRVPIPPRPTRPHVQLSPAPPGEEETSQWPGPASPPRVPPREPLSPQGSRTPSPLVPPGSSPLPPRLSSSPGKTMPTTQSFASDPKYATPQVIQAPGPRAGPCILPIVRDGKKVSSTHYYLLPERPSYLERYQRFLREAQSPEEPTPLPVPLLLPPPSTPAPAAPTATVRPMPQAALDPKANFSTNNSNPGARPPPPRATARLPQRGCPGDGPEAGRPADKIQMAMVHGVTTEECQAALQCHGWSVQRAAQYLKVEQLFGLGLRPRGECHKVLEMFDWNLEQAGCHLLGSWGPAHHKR

[9] = molecular target: G protein-coupled receptor kinase 5 (Homo sapiens, UniProt P34947); experiment: Navigating the Kinome. Panel member name: GPRK5; type: functional
Aurora kinase B = Aurora kinase B (Homo sapiens, UniProt Q96GD4); type: functional
Chain of Aurora kinase B (Q96GD4 whole entry): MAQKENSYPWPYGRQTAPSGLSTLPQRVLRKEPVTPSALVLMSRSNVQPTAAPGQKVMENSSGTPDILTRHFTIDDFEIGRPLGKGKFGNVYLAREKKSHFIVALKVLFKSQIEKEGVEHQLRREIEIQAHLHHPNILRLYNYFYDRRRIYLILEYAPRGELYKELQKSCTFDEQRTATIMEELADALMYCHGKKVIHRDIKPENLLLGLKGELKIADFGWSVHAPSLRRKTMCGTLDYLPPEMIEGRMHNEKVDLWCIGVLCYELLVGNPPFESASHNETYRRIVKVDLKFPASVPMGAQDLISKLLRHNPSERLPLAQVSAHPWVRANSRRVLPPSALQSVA

[10] = molecular target: Protein kinase C theta type (Homo sapiens, UniProt Q04759); experiment: Navigating the Kinome. Panel member name: PRKCQ; type: functional
Chain of Protein kinase C theta type (Q04759 whole entry): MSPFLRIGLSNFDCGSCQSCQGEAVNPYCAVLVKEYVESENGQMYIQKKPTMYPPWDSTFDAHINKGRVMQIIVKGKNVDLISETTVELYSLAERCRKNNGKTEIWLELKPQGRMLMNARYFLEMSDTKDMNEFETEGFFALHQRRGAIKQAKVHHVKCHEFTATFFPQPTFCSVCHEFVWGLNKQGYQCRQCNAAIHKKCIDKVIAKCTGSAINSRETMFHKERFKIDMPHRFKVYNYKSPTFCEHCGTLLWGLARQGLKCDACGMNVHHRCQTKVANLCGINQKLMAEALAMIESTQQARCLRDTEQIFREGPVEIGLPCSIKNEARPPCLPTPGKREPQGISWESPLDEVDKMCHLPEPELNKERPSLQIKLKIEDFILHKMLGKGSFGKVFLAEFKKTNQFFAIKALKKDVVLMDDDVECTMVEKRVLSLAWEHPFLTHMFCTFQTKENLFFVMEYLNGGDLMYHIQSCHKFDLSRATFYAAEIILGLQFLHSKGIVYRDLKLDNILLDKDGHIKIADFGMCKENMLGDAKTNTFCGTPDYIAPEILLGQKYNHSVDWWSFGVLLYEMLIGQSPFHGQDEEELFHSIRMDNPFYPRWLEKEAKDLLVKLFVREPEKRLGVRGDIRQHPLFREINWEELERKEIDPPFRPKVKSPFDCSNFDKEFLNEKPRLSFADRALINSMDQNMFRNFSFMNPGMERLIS

[11] = molecular target: Kappa-type opioid receptor (Homo sapiens, UniProt P41145); type: functional
Chain of Kappa-type opioid receptor (P41145 whole entry): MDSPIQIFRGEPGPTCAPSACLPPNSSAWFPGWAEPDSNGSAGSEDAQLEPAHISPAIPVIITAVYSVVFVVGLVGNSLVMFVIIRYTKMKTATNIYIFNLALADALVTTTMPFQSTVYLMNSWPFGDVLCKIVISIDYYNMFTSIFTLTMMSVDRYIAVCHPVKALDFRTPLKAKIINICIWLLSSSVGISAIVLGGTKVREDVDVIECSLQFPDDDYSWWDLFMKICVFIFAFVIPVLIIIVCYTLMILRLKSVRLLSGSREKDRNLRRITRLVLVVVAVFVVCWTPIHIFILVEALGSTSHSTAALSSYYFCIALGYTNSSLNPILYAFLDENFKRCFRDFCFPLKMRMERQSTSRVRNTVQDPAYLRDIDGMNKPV

[12] = molecular target: Serine/threonine-protein kinase TBK1 (Homo sapiens, UniProt Q9UHD2); experiment: Navigating the Kinome. Panel member name: TBK1; type: functional
Chain of Serine/threonine-protein kinase TBK1 (Q9UHD2 whole entry): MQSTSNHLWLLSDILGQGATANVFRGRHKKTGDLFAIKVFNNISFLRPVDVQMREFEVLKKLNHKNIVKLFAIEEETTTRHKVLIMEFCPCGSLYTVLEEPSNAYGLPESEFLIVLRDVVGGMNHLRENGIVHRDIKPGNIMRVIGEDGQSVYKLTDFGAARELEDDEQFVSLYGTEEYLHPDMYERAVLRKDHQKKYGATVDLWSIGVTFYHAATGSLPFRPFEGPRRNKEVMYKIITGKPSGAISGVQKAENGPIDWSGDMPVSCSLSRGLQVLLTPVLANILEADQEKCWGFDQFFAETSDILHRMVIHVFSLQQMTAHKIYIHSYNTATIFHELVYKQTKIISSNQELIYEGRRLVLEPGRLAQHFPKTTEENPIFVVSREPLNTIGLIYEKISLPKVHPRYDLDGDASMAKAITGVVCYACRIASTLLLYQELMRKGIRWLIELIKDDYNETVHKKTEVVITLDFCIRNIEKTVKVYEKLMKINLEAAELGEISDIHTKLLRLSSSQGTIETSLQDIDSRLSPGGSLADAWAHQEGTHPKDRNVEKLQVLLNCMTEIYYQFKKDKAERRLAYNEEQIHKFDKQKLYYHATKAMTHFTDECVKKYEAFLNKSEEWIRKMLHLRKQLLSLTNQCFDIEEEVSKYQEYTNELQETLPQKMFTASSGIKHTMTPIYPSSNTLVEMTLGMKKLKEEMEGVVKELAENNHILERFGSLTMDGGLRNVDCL

[13] = molecular target: Cyclin-dependent kinase 7 (Homo sapiens, UniProt P50613); type: functional;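 further: value comes from a kinome-wide kinase profiling panel in which CDK7 is one member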
Chain of Cyclin-dependent kinase 7 (P50613 whole entry): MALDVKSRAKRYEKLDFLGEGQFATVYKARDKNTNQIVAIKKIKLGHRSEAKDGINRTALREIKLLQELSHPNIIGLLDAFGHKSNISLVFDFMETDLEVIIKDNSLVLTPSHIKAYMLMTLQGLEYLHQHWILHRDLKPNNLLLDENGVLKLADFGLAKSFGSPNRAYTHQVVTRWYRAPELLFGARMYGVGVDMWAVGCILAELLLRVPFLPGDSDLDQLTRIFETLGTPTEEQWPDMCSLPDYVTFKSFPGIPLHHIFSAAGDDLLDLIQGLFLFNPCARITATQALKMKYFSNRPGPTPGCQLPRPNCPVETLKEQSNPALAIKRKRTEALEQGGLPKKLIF

For `COC(=O)CCS(=O)(=O)c1nc(-c2ccccc2)cc(C(F)(F)F)n1`, which IC50 [1] is on record?
Its IC50 is 1.34 µM (active).

What about the IC50 (cells) of the same molecule?
The IC50 was 4.78 µM (active).

And the IC50 (Beta Lactamase)?
The IC50 was 16.4 µM (inactive).

Which EC50 [2] does the source give for `O=C(O)c1ccc(NC2=C(Cl)C(=O)c3ccccc3C2=O)cc1` here?
Its EC50 is 4.97 µM (active).

With `O=C(O)c1ccc2c3c(ncnc13)-c1ccccc1C2=O` as the molecule, how does the EC50 [3] read?
The EC50 was 2.48 µM (active).

And the EC50 [4]?
Its EC50 is 1.32 µM (active).

What about the EC50 (Streptokinase A) of the same molecule?
The EC50 was 16 µM (active).

And the IC50 (14-3-3 protein gamma)?
The IC50 was > 50 µM (not active).

Which AC50 [5] does the source give for `CCOC(=O)c1c2c(n(Cc3ccccc3)c1C)C(=O)C(=O)c1ccccc1-2` here?
The AC50 was 5.03 µM (active).

What about the CC50 [6] of the same molecule?
The CC50 was 0.87 µM (active).

For `Cc1ccc2nccc(NC(=O)Nc3cccc(C(F)(F)F)n3)c2c1`, which Ki [7] is on record?
The Ki was > 1.58 µM (inactive).

What about the Ki [8] of the same molecule?
The Ki was > 3.98 µM (inactive).

What about the Ki (Activated CDC42 kinase 1) of the same molecule?
Its Ki is > 3.98 µM (inactive).

What about the Ki [9] of the same molecule?
Its Ki is > 3.98 µM (inactive).

And the Ki (Aurora kinase B)?
Its Ki is 0.251 µM (active).

For `Cc1nn(C)c2sc3c(=O)[nH]cnc3c12`, which Ki [10] is on record?
Its Ki is 79.4 µM (active).

Which IC50 [11] does the source give for `Cc1c(/N=C2\C=CC(=O)c3ccccc32)c(=O)n(-c2ccccc2)n1C` here?
The IC50 was 12.1 µM (active).

With `COc1cc2c(cc1F)C(c1ccccc1Cl)=Nc1c(n[nH]c1C)N2` [RG-1530] as the molecule, how does the Ki [12] read?
Its Ki is > 2.51 µM (inactive).

And the Ki [13]?
The Ki was 0.631 µM (active).
